Test: xn = mol fraction of the nth substance listed

C1=CCCCC1 + CCCCCC
303.15 K, 101 kPa
Conditions | viscosity [mPa·s]
x1 = 0.1718 | 0.348
x1 = 0.2792 | 0.365
x1 = 0.3914 | 0.387
x1 = 0.5249 | 0.418
x1 = 0.5946 | 0.438
x1 = 0.6859 | 0.464
x1 = 0.8067 | 0.503
x1 = 0.9032 | 0.536

CCOC(=O)c1ccccc1 + CC(=O)O
298.15 K, 101 kPa
Conditions | viscosity [mPa·s]
x2 = 0.1041 | 1.948
x2 = 0.2129 | 1.874
x2 = 0.3045 | 1.797
x2 = 0.3882 | 1.727
x2 = 0.475 | 1.651
x2 = 0.5822 | 1.538
x2 = 0.6826 | 1.446
x2 = 0.7956 | 1.322
x2 = 0.9132 | 1.202

Cc1cccc([N+](=O)[O-])c1 + Cc1ccccc1
303.15 K, 101.33 kPa
Conditions | viscosity [mPa·s]
x1 = 0.201 | 0.63
x1 = 0.406 | 0.8
x1 = 0.603 | 1
x1 = 0.8 | 1.33

CCOC(=O)c1ccccc1 + C1CCOC1
viscosity [mPa·s], 101 kPa
Conditions | x1 = 0.0601 | x1 = 0.1259 | x1 = 0.198 | x1 = 0.2773 | x1 = 0.3628 | x1 = 0.4611 | x1 = 0.5719 | x1 = 0.6953 | x1 = 0.8372
303.15 K | 0.488 | 0.545 | 0.617 | 0.706 | 0.804 | 0.937 | 1.083 | 1.257 | 1.474
308.15 K | 0.473 | 0.524 | 0.595 | 0.676 | 0.767 | 0.885 | 1.019 | 1.168 | 1.36
313.15 K | 0.436 | 0.49 | 0.553 | 0.626 | 0.706 | 0.809 | 0.928 | 1.063 | 1.229

CCCCCl + C1CCOC1
viscosity [mPa·s], 101 kPa
Conditions | 298.15 K | 313.15 K
x2 = 0.0418 | 0.4311 | 0.3702
x2 = 0.052 | 0.434 | –
x2 = 0.0524 | 0.4231 | 0.3656
x2 = 0.0982 | 0.4366 | 0.3758
x2 = 0.0985 | 0.439 | –
x2 = 0.108 | 0.425 | 0.3675
x2 = 0.153 | 0.443 | –
x2 = 0.1781 | 0.442 | 0.3808
x2 = 0.2063 | 0.4287 | 0.3706
x2 = 0.2076 | 0.444 | 0.3826
x2 = 0.29 | 0.449 | –
x2 = 0.2991 | 0.4324 | 0.3737
x2 = 0.2996 | 0.4479 | 0.3869
x2 = 0.36 | 0.452 | –
x2 = 0.4 | 0.4522 | 0.3911
x2 = 0.4088 | 0.4367 | 0.3772
x2 = 0.4229 | 0.455 | –
x2 = 0.445 | 0.456 | –
x2 = 0.4998 | 0.4547 | 0.3937
x2 = 0.507 | 0.4408 | 0.3804
x2 = 0.5395 | 0.457 | –
x2 = 0.5516 | 0.4553 | 0.3943
x2 = 0.5945 | 0.458 | –
x2 = 0.5979 | 0.4565 | 0.3955
x2 = 0.6074 | 0.4453 | 0.3838
x2 = 0.6605 | 0.459 | –
x2 = 0.6991 | 0.458 | 0.3977
x2 = 0.7001 | 0.4495 | 0.387
x2 = 0.7649 | 0.46 | –
x2 = 0.8021 | 0.4598 | 0.3997
x2 = 0.8054 | 0.4546 | 0.3907
x2 = 0.8499 | 0.46 | 0.3999
x2 = 0.8658 | 0.461 | –
x2 = 0.891 | 0.4587 | 0.3939
x2 = 0.8993 | 0.4607 | 0.4
x2 = 0.9108 | 0.46 | –
x2 = 0.9519 | 0.4598 | 0.4006
x2 = 0.9528 | 0.4613 | 0.3961

Cc1cccc([N+](=O)[O-])c1 + Cc1ccccc1C
308.15 K, 101.33 kPa
Conditions | viscosity [mPa·s]
x2 = 0.1044 | 1.384
x2 = 0.2068 | 1.211
x2 = 0.2995 | 1.102
x2 = 0.4028 | 1.01
x2 = 0.5015 | 0.944
x2 = 0.6123 | 0.867
x2 = 0.7055 | 0.81
x2 = 0.8268 | 0.742
x2 = 0.9132 | 0.698

CCOC(=O)c1ccccc1 + C1CCCCC1
viscosity [mPa·s], 101 kPa
Conditions | x1 = 0.0779 | x1 = 0.1586 | x1 = 0.2454 | x1 = 0.3327 | x1 = 0.4305 | x1 = 0.5312 | x1 = 0.6374 | x1 = 0.751 | x1 = 0.868
303.15 K | 0.82 | 0.832 | 0.88 | 0.937 | 1.025 | 1.123 | 1.248 | 1.387 | 1.552
308.15 K | 0.78 | 0.801 | 0.84 | 0.89 | 0.96 | 1.047 | 1.157 | 1.295 | 1.439
313.15 K | 0.708 | 0.727 | 0.772 | 0.819 | 0.885 | 0.967 | 1.069 | 1.198 | 1.33

CCS(=O)CC + CCC#N
viscosity [mPa·s], 101 kPa
Conditions | x1 = 0.0998 | x1 = 0.2002 | x1 = 0.2962 | x1 = 0.3999 | x1 = 0.4953 | x1 = 0.6017 | x1 = 0.6937 | x1 = 0.7999 | x1 = 0.8998
298.15 K | 0.53 | 0.63 | 0.73 | 0.89 | 1.05 | 1.26 | 1.45 | 1.74 | 1.98
303.15 K | 0.49 | 0.59 | 0.69 | 0.83 | 0.96 | 1.15 | 1.35 | 1.56 | 1.84
308.15 K | 0.46 | 0.55 | 0.64 | 0.78 | 0.89 | 1.06 | 1.25 | 1.41 | 1.68
313.15 K | 0.44 | 0.54 | 0.61 | 0.74 | 0.85 | 0.99 | 1.14 | 1.32 | 1.52
318.15 K | 0.42 | 0.5 | 0.59 | 0.69 | 0.78 | 0.92 | – | 1.21 | 1.39
323.15 K | 0.36 | 0.43 | 0.51 | 0.59 | 0.67 | 0.79 | 0.91 | 1.02 | 1.17

— the CheMixHub viscosity set
